Laboratory results taken from US9877961B2, “Anticoagulant reversal agents” (PEROSPHERE INC., priority 2011, dated 2018).
Marks after values point to notes of the source that are not given here.

Columns and labels:
[1] = Binding of anticoagulants to DAP (DLS; summary Tables 2 and 3); settings: lowest DAP:anticoagulant ratio with association above 50 nm apparent diameter in phosphate buffered saline
[2] = system: apixaban (ELIQUIS®) anticoagulation; assay: Rat tail transection bleeding assay, apixaban; type: in vivo; settings: apixaban, oral; Bleeding assay; minimal in vivo reversal dose; assumes 50% oral bioavailability
Procedure: (§1) Rat tail bleeding assay or rat tail transection assay is an assay that measures blood loss, e.g., blood loss after drug administration. In one embodiment, where the effect of the compound of the invention (e.g., DAP) is being tested, at the Tmax of the anticoagulant, DAP is administered intravenously. After 20 minutes, rat tails are transected approximately 1 mm from the tip, placed in room temperature saline, and blood is collected for 30 minutes and weighed.
(§2) Three rats each were administered 2 mg of rivaroxaban. One rat received a sham reversal containing no DAP, the second received 2.5 mg of DAP, and the third received 12.5 mg DAP. A fourth fat received sham anticoagulant and reversal doses (“sham”). 20 minutes after the reversal dose, tails were transected 1 mm from the tip, placed in room temperature saline, and blood loss was collected for 30 minutes and then weighed.
Same procedures were used with 1.25 mg apixaban (ELIQUIS®) alone or in combination with 5 or 12.5 mg DAP; with 15.5 mg dabigatran etexilate (PRADAXA®) alone or in combination with 5 or 12.5 mg DAP; and with 5 mg edoxaban (LIXIANA®) alone or in combination with 12.5 mg DAP.

[3] = assumption used for Table 3; cited from earlier work
[4] = system: dabigatran (PRADAXA®) anticoagulation; assay: DAP reversal of dabigatran (PRADAXA®) anticoagulation in vivo, aPTT; design: species or system rat; settings: 40 mg/kg oral gavage, 2 hours; baseline 43 seconds
From the text: The activated partial thromboplastin time (aPTT) assay is an assay that measures how long it takes for the blood to clot. Blood samples are collected for direct measurement or in tubes with oxalate and citrate to arrest coagulation by calcium until the assay can be performed. In the assay, a phospholipid, an activator (silica, celite, kaolin, ellagic acid, etc.), and calcium are mixed into the plasma to induce coagulation. The assay measures the time until a thrombus (clot) forms.
A male albino rat, weighing 430 g, was administered 40 mg/kg of PRADAXA® (20 mg PRADAXA®; overdose of PRADAXA®) by oral gavage.
Approximately 2 hours into PRADAXA® treatment, 200 mg/kg DAP (100 mg DAP) was administered as an intravenous bolus injection. Approximately 2 hours later, the rat was administered a dose of 100 mg/kg of DAP (50 mg DAP). In another hour, the rat was administered another dose of 100 mg/kg of DAP (50 mg DAP). aPTT was measured throughout the course of the entire treatment.

Factor Xa = settings: cited from earlier work
[5] = system: fondaparinux anticoagulation; assay: DAP reversal of fondaparinux (ARIXTRA®) anticoagulation in vivo, chromogenic Factor Xa assay; design: species or system rat; settings: fondaparinux s.c.; Xa kit; 200 mg/kg DAP was the lowest dose administered
Procedure: The anti-factor Xa assay directly measures anti-factor Xa activity. The methodology behind an anti-factor Xa assay is that patient plasma is added to a known amount of excess factor Xa and excess antithrombin. If a factor Xa inhibitor is present in the patient plasma, it will reduce the enzymatic activity of factor Xa. The amount of residual factor Xa is inversely proportional to the amount of anti-Xa agent in the plasma. The amount of residual factor Xa is detected by adding a chromogenic substrate that mimics the natural substrate of factor Xa, making residual factor Xa cleave it, releasing a colored compound that can be detected by a spectrophotometer. […] Results are given in anticoagulant concentration in units/mL of antifactor Xa, such that high values indicate high levels of anticoagulation and low values indicate low levels of anticoagulation.
5 mg/kg fondaparinux was administered subcutaneously to rats. 200 mg/kg DAP was administered intravenously after 2 hours. Activity was measured by chromogenic 510 k cleared Factor Xa Assay (Biophen) at 10, 20, 30 and 60 minutes after DAP administration.

[6] = cited from earlier work
[7] = system: rivaroxaban anticoagulation; assay: Rat tail transection bleeding assay, rivaroxaban; type: in vivo; settings: rivaroxaban, oral; Bleeding assay; minimal in vivo reversal dose; assumes 60% oral bioavailability
Procedure: as §1, §2

| Structure (SMILES) | DLS Binding Molar Ratio [DAP/drug] [1] | Reversal Molar Ratio [DAP/drug] [2] | oral bioavailability (assumed) [3] [%] | aPTT after PRADAXA® administration [4] [s] | potentiation of innate neutralization of Factor Xa by ATIII (Factor Xa) | Reversal Molar Ratio [DAP/drug] [5] | time to peak steady-state plasma concentration ([6]; patients, 2.5 mg once daily, post-dose) | absolute bioavailability ([6]; subcutaneous injection) [%] | Reversal Molar Ratio [DAP/drug] [7] |
| --- | --- | --- | --- | --- | --- | --- | --- | --- | --- |
| COc1ccc(-n2nc(C(N)=O)c3c2C(=O)N(c2ccc(N4CCCCC4=O)cc2)CC3)cc1 [Apixaban, 1-(4-methoxyphenyl)-7-oxo-6-[4-(2-oxopiperidin-1-yl)phenyl]-4,5-dihydropyrazolo[5,4-c]pyridine-3-carboxamide] | 10 | 8* | 50 | – | – | – | – | – | – |
| CCCCCCOC(=O)NC(=N)c1ccc(NCc2nc3cc(C(=O)N(CCC(=O)OCC)c4ccccn4)ccc3n2C)cc1.CS(=O)(=O)O [Dabigatran etexilate, β-Alanine, N-[[2-[[[4-[[[(hexyloxy)carbonyl]amino]iminomethyl]phenyl]amino]methyl]-1-methyl-1H-benzimidazol-5-yl]carbonyl]-N-2-pyridinyl-,ethyl ester, methanesulfonate] | – | – | 5 | 81 | – | – | – | – | – |
| CO[C@H]1O[C@H](COS(=O)(=O)[O-])[C@@H](O[C@@H]2O[C@@H](C(=O)[O-])[C@@H](O[C@H]3O[C@H](COS(=O)(=O)[O-])[C@@H](O[C@@H]4O[C@H](C(=O)[O-])[C@@H](O[C@H]5O[C@H](COS(=O)(=O)[O-])[C@@H](O)[C@H](O)[C@H]5NS(=O)(=O)[O-])[C@H](O)[C@H]4O)[C@H](OS(=O)(=O)[O-])[C@H]3NS(=O)(=O)[O-])[C@H](O)[C@H]2OS(=O)(=O)[O-])[C@H](O)[C@H]1NS(=O)(=O)[O-].[Na+].[Na+].[Na+].[Na+].[Na+].[Na+].[Na+].[Na+].[Na+].[Na+] [Fondaparinux, methyl O-2-deoxy-6-O-sulfo-2-(sulfoamino)-α-D-glucopyranosyl-(1→4)-O-β-D-glucopyra-nuronosyl-(1→4)-O-2-deoxy-3,6-di-O-sulfo-2-(sulfoamino)-α-D-glucopyranosyl-(1→4)-O-2-O-sulfo-α-L-idopyranuronosyl-(1→4)-2-deoxy-6-O-sulfo-2-(sulfoamino)-α-D-glucopyranoside, decasodium salt] | 3 | – | – | – | about 300 times | 130 | approximately 3 hours | 100 | – |
| O=C(NC[C@H]1CN(c2ccc(N3CCOCC3=O)cc2)C(=O)O1)c1ccc(Cl)s1 [Rivaroxaban, 5-Chloro-N-({(5S)-2-oxo-3-[4-(3-oxo-4-morpholinyl)phenyl]-1,3-oxazolidin-5-yl}methyl)-2-thiophenecarboxamide] | 9 | – | 60 | – | – | – | – | – | 3* |
